Reference: ChEMBL document CHEMBL4411276, “Chemistry-oriented synthesis (ChOS) and target deconvolution on neuroprotective effect of a novel scaffold, oxaza spiroquinone” (Eur J Med Chem, 2019)

Columns and labels:
[1] = Cytotoxicity against LPS-stimulated mouse BV2 cells assessed as cell survival after 24 hrs by MTT assay relative to control; type: cell-based, BV-2; set-up: concentration or dose not given beside the values; conditions: read-out: Survival
BV-2 = test: Anti-inflammatory activity in mouse BV2 cells assessed as reduction in LPS-induced NO production pre-treated before LPS stimulation for 24 hrs by Griess reagent-based assay; type: functional, cell-based
[2] = Cytotoxicity against mouse BV2 cells assessed as cell survival after 24 hrs by MTT assay relative to control; type: cell-based, BV-2; set-up: concentration or dose not given beside the values; conditions: read-out: Survival

O=C1C=CC2(C=C1)OCC(Cc1ccc(F)cc1)C(=O)N2c1ccccc1 (stereo unspecified)
viability at 24 h [1]: 85.2% | IC50 (BV-2): 400 nM | viability at 24 h [2]: 82.9%

Cc1cc(C)cc(CC2COC3(C=CC(=O)C=C3)N(c3ccccc3)C2=O)c1 (stereo unspecified)
viability at 24 h [1]: 78% | IC50 (BV-2): 1820 nM | viability at 24 h [2]: 94.2%

C=C(C)CC1COC2(C=CC(=O)C=C2)N(c2ccccc2)C1=O (stereo unspecified)
viability at 24 h [1]: 80.1% | IC50 (BV-2): 450 nM | viability at 24 h [2]: 91.4%

O=C1C=CC2(C=C1)OCC(Cc1cccc(Br)c1)C(=O)N2c1ccccc1 (stereo unspecified)
viability at 24 h [1]: 74% | IC50 (BV-2): 540 nM | viability at 24 h [2]: 96%

C=CCCC1COC2(C=CC(=O)C=C2)N(c2ccccc2)C1=O (stereo unspecified)
viability at 24 h [1]: 80.4% | IC50 (BV-2): 730 nM | viability at 24 h [2]: 89%

O=C1C=CC2(C=C1)OCC(Cc1cc(C(F)(F)F)ccc1Cl)C(=O)N2c1ccccc1 (stereo unspecified)
viability at 24 h [1]: 64.4% | IC50 (BV-2): 770 nM | viability at 24 h [2]: 70.5%

O=C1C=CC2(C=C1)OCC(Cc1ccc([N+](=O)[O-])cc1)C(=O)N2c1ccccc1 (stereo unspecified)
viability at 24 h [1]: 82.7% | IC50 (BV-2): 430 nM | viability at 24 h [2]: 95.5%

O=C1C=CC2(C=C1)OCC(Cc1ccccc1)C(=O)N2c1ccccc1 (stereo unspecified)
viability at 24 h [1]: 76.1% | IC50 (BV-2): 570 nM | viability at 24 h [2]: 82.1%

O=C1C=CC2(C=C1)OCC(Cc1ccc(C(F)(F)F)cc1)C(=O)N2c1ccccc1 (stereo unspecified)
viability at 24 h [1]: 84.1% | IC50 (BV-2): 1650 nM | viability at 24 h [2]: 87.1%

O=C1C=CC2(C=C1)OCCC(=O)N2c1ccccc1
viability at 24 h [1]: 79.8% | IC50 (BV-2): 1300 nM | viability at 24 h [2]: 102%

O=C1C=CC2(C=C1)OCC(Cc1c(F)cccc1C(F)(F)F)C(=O)N2c1ccccc1 (stereo unspecified)
viability at 24 h [1]: 71.1% | IC50 (BV-2): 600 nM | viability at 24 h [2]: 84.4%

CNC(=N)NCCC[C@H](N)C(=O)O [TILARGININE]
viability at 24 h [1]: 60.5% | IC50 (BV-2): 16000 nM

C=CCC1COC2(C=CC(=O)C=C2)N(c2ccccc2)C1=O (stereo unspecified)
viability at 24 h [1]: 84.6% | IC50 (BV-2): 1030 nM | viability at 24 h [2]: 89.7%

O=C1C=CC2(C=C1)OCC(Cc1ccc(Cl)cc1)C(=O)N2c1ccccc1 (stereo unspecified)
viability at 24 h [1]: 79% | IC50 (BV-2): 540 nM | viability at 24 h [2]: 91%

O=C1C=CC2(C=C1)OCC(Cc1ccc(C(F)(F)F)cc1[N+](=O)[O-])C(=O)N2c1ccccc1 (stereo unspecified)
IC50 (BV-2): 970 nM

O=C1C=CC2(C=C1)OCC(Cc1ccccc1CS(=O)(=O)c1ccccc1)C(=O)N2c1ccccc1 (stereo unspecified)
viability at 24 h [1]: 84.3% | IC50 (BV-2): 980 nM | viability at 24 h [2]: 97.5%

CC1COC2(C=CC(=O)C=C2)N(c2ccccc2)C1=O (stereo unspecified)
viability at 24 h [1]: 72.8% | IC50 (BV-2): 1220 nM | viability at 24 h [2]: 86.1%

O=C1C=CC2(C=C1)OCC(Cc1ccc(Br)cc1)C(=O)N2c1ccccc1 (stereo unspecified)
viability at 24 h [1]: 72% | IC50 (BV-2): 1380 nM | viability at 24 h [2]: 82.7%
